# Columns and labels:
# Type in all cases: in vivo
# [1] = system: corn (Zea mays); experiment: Test B postemergence; details: 13 to 15 days
# In short: (§1)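 Greenhouse test: chemicals are formulated in a surfactant-containing non-phytotoxic solvent and applied either preemergence to planted seeds or postemergence to plants 2 to 18 cm tall. Response is rated visually versus controls after 13 to 15 days, 0 meaning no effect and 100 complete control.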
# [2] = system: giant foxtail (Setaria faberii); experiment: Test B postemergence; details: 13 to 15 days
# In short: as §1
# [3] = system: cocklebur (Xanthium strumarium); experiment: Test B postemergence; details: 13 to 15 days
# In short: as §1
# [4] = system: wild oat (Avena fatua); experiment: Test B postemergence; details: 13 to 15 days
# In short: as §1
# [5] = system: velvetleaf (Abutilon theophrasti); experiment: Test B postemergence; details: 13 to 15 days
# In short: as §1
# [6] = system: barnyardgrass (Echinochloa crus-galli); experiment: Test B postemergence; details: 13 to 15 days
# In short: as §1
# [7] = system: wheat (Triticum aestivum); experiment: Test B postemergence; details: 13 to 15 days
# In short: as §1
# [8] = system: morning glory (Ipomoea hederacea); experiment: Test B postemergence; details: 13 to 15 days
# In short: as §1
# [9] = system: pigweed (Amaranthus retroflexus); experiment: Test B postemergence; details: 13 to 15 days
# In short: as §1
# [10] = system: Surinam grass (Brachiaria decumbens); experiment: Test B postemergence; details: 13 to 15 days
# In short: as §1
# [11] = system: crabgrass (Digitaria sanguinalis); experiment: Test B postemergence; details: 13 to 15 days
# In short: as §1
# [12] = system: Sunflower; experiment: Test C preemergence; details: Rate 250 g/ha, visual evaluation after 12 to 14 days
# [13] = system: corn (Zea mays); experiment: Test C preemergence; details: for Plant response rating (0 to 100), Corn: Rate 250 g/ha, visual evaluation after 12 to 14 days
# In short: (§2)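 Visual 0–100 rating vs controls (0 = no effect, 100 = complete control) at 12–14 d, greenhouse. Compounds in non-phytotoxic solvent + surfactant; pre: sprayed after seeding; post: 1–4-leaf plants, 2–18 cm.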
# [14] = system: lambsquarters (Chenopodium album); experiment: Test C preemergence; details: for Plant response rating (0 to 100), Lambsquarters: Rate 250 g/ha, visual evaluation after 12 to 14 days
# In short: as §2
# [15] = system: morningglory (Ipomoea hederacea); experiment: Test C preemergence; details: for Plant response rating (0 to 100), Morningglory: Rate 250 g/ha, visual evaluation after 12 to 14 days
# In short: as §2
# [16] = system: Sunflower; experiment: Test C preemergence
# [17] = system: yellow nutsedge (Cyperus esculentus); experiment: Test C preemergence; details: for Plant response rating (0 to 100), Nutsedge: Rate 250 g/ha, visual evaluation after 12 to 14 days
# In short: as §2
# [18] = system: goosegrass (Eleusine indica); experiment: Test C preemergence; details: for Plant response rating (0 to 100), Goosegrass: Rate 250 g/ha, visual evaluation after 12 to 14 days
# In short: as §2
# [19] = system: velvetleaf (Abutilon theophrasti); experiment: Test C preemergence; details: for Plant response rating (0 to 100), Velvetleaf: Rate 250 g/ha, visual evaluation after 12 to 14 days
# In short: as §2
# [20] = system: common ragweed (Ambrosia elatior); experiment: Test C preemergence
# In short: as §2
# [21] = system: johnsongrass (Sorghum halepense); experiment: Test C preemergence; details: for Plant response rating (0 to 100), Johnsongrass: Rate 250 g/ha, visual evaluation after 12 to 14 days
# In short: as §2
# [22] = system: Nightshade; experiment: Test C preemergence
# [23] = Rate 125 g/ha, scale 0 (no effect) to 100 (complete control)
# [24] = Rate 500 g/ha, scale 0 to 100, 0 is no effect, 100 is complete control
# [25] = Preemergence, Rate 500 g/ha, scale 0 to 100
# [26] = Rate 62 g/ha, scale 0 to 100, 0 no effect, 100 complete control
# [27] = preemergence, Rate 125 g/ha, scale 0 to 100, 0 no effect, 100 complete control
# [28] = Rate 125 g/ha, scale 0 to 100, 0 no effect, 100 complete control
# [29] = preemergence, Rate 31 g/ha, scale 0 to 100
compound,measurement,setting,value
O=C1C(n2ccc(C3CC3)n2)CCN1c1cccc(C(F)(F)F)c1 (stereo not drawn) [Compound 8],"Plant response rating, Corn",[1]; [23],0
same,"Plant response rating, Corn",[1]; [24],0
same,"Plant response rating, Foxtail, Giant",[2]; [23],0
same,"Plant response rating, Foxtail, Giant",[2]; [24],0
same,"Plant response rating, Cocklebur",[3]; [23],0
same,"Plant response rating, Cocklebur",[3]; [24],10
same,"Plant response rating, Wild Oat",[4]; [23],0
same,"Plant response rating, Wild Oat",[4]; [24],0
same,"Plant response rating, Velvetleaf",[5]; [23],0
same,"Plant response rating, Velvetleaf",[5]; [24],0
same,"Plant response rating, Barnyardgrass",[6]; [23],0
same,"Plant response rating, Barnyardgrass",[6]; [24],0
same,"Plant response rating, Wheat",[7]; [23],0
same,"Plant response rating, Wheat",[7]; [24],0
same,"Plant response rating, Morningglory",[8]; [23],0
same,"Plant response rating, Morningglory",[8]; [24],0
same,"Plant response rating, Pigweed",[9]; [23],0
same,"Plant response rating, Pigweed",[9]; [24],10
same,"Plant response rating, Surinam grass",[10]; [23],0
same,"Plant response rating, Surinam grass",[10]; [24],0
same,"Plant response rating, Crabgrass",[11]; [23],0
same,"Plant response rating, Crabgrass",[11]; [24],0
same,"Plant response rating (0 to 100), Sunflower",[12],0
same,"Plant response rating, Corn",[13]; [25],0
same,"Plant response rating, Corn",[13]; [26],0
same,"Plant response rating (0 to 100), Corn",[13]; preemergence,0
same,"Plant response rating, Corn",[13]; [27],0
same,"Plant response rating, Lambsquarters",[14]; [25],100
same,"Plant response rating, Lambsquarters",[14]; [26],100
same,"Plant response rating (0 to 100), Lambsquarters",[14]; preemergence,100
same,"Plant response rating, Lambsquarters",[14]; [27],100
same,"Plant response rating, Morningglory",[15]; [25],30
same,"Plant response rating, Morningglory",[15]; [26],20
same,"Plant response rating (0 to 100), Morningglory",[15]; preemergence,30
same,"Plant response rating, Morningglory",[15]; [27],30
same,"Plant response rating, Sunflower",[16]; [26],0
same,"Plant response rating, Sunflower","[16]; Rate 500 g/ha, scale 0 to 100",30
same,"Plant response rating, Nutsedge",[17]; [25],0
same,"Plant response rating, Nutsedge",[17]; [26],0
same,"Plant response rating (0 to 100), Nutsedge",[17]; preemergence,0
same,"Plant response rating, Nutsedge",[17]; [27],0
same,"Plant response rating, Goosegrass",[18]; [25],100
same,"Plant response rating, Goosegrass",[18]; [26],0
same,"Plant response rating (0 to 100), Goosegrass",[18]; preemergence,90
same,"Plant response rating, Goosegrass",[18]; [27],20
same,"Plant response rating, Velvetleaf",[19]; [25],20
same,"Plant response rating, Velvetleaf",[19]; [26],0
same,"Plant response rating (0 to 100), Velvetleaf",[19]; preemergence,20
same,"Plant response rating, Velvetleaf",[19]; [27],0
same,"Plant response rating, Ragweed, Common",[20]; [25],80
same,"Plant response rating, Ragweed, Common",[20]; [26],0
same,"Plant response rating, Ragweed, Common",[20]; [27],0
same,"Plant response rating, Johnsongrass",[21]; [25],0
same,"Plant response rating, Johnsongrass",[21]; [26],0
same,"Plant response rating (0 to 100), Johnsongrass",[21]; preemergence,0
same,"Plant response rating, Johnsongrass",[21]; [27],0
same,"Plant response rating, Nightshade",[22]; [26],0
same,"Plant response rating, Nightshade",[22]; [28],0
same,"Plant response rating, Nightshade","[22]; Rate 500 g/ha, scale 0 to 100",0
O=C1C(n2ccc(C3CC3)n2)OCN1c1cccc(C(F)(F)F)c1 (stereo not drawn) [Compound 28],"Plant response rating, Corn",[1]; [23],0
same,"Plant response rating, Corn",[1]; [24],0
same,"Plant response rating, Foxtail, Giant",[2]; [23],0
same,"Plant response rating, Foxtail, Giant",[2]; [24],30
same,"Plant response rating, Cocklebur",[3]; [23],0
same,"Plant response rating, Cocklebur",[3]; [24],0
same,"Plant response rating, Wild Oat",[4]; [23],0
same,"Plant response rating, Wild Oat",[4]; [24],0
same,"Plant response rating, Velvetleaf",[5]; [23],0
same,"Plant response rating, Velvetleaf",[5]; [24],0
same,"Plant response rating, Barnyardgrass",[6]; [23],0
same,"Plant response rating, Barnyardgrass",[6]; [24],60
same,"Plant response rating, Wheat",[7]; [23],0
same,"Plant response rating, Wheat",[7]; [24],0
same,"Plant response rating, Morningglory",[8]; [23],0
same,"Plant response rating, Morningglory",[8]; [24],0
same,"Plant response rating, Pigweed",[9]; [23],30
same,"Plant response rating, Pigweed",[9]; [24],30
same,"Plant response rating, Surinam grass",[10]; [23],0
same,"Plant response rating, Surinam grass",[10]; [24],0
same,"Plant response rating, Crabgrass",[11]; [23],20
same,"Plant response rating, Crabgrass",[11]; [24],30
same,"Plant response rating (0 to 100), Sunflower",[12],40
same,"Plant response rating, Corn",[13]; [26],0
same,"Plant response rating, Corn",[13]; [29],0
same,"Plant response rating (0 to 100), Corn",[13]; preemergence,30
same,"Plant response rating, Corn",[13]; [27],30
same,"Plant response rating, Lambsquarters",[14]; [26],100
same,"Plant response rating, Lambsquarters",[14]; [29],100
same,"Plant response rating (0 to 100), Lambsquarters",[14]; preemergence,100
same,"Plant response rating, Lambsquarters",[14]; [27],100
same,"Plant response rating, Morningglory",[15]; [26],0
same,"Plant response rating, Morningglory",[15]; [29],0
same,"Plant response rating (0 to 100), Morningglory",[15]; preemergence,0
same,"Plant response rating, Morningglory",[15]; [27],0
same,"Plant response rating, Sunflower",[16]; [26],20
same,"Plant response rating, Nutsedge",[17]; [26],50
same,"Plant response rating, Nutsedge",[17]; [29],50
same,"Plant response rating (0 to 100), Nutsedge",[17]; preemergence,50
same,"Plant response rating, Nutsedge",[17]; [27],50
same,"Plant response rating, Goosegrass",[18]; [26],80
same,"Plant response rating, Goosegrass",[18]; [29],40
same,"Plant response rating (0 to 100), Goosegrass",[18]; preemergence,100
same,"Plant response rating, Goosegrass",[18]; [27],100
same,"Plant response rating, Velvetleaf",[19]; [26],0
same,"Plant response rating, Velvetleaf",[19]; [29],0
same,"Plant response rating (0 to 100), Velvetleaf",[19]; preemergence,0
same,"Plant response rating, Velvetleaf",[19]; [27],0
same,"Plant response rating, Johnsongrass",[21]; [26],50
same,"Plant response rating, Johnsongrass",[21]; [29],0
same,"Plant response rating (0 to 100), Johnsongrass",[21]; preemergence,70
same,"Plant response rating, Johnsongrass",[21]; [27],70
same,"Plant response rating, Nightshade","[22]; Rate 31 g/ha, scale 0 to 100",0
same,"Plant response rating, Nightshade",[22]; [26],0
same,"Plant response rating, Nightshade",[22]; [28],70
